From patent publication EP0569598A1, “BENZOXAZINONE DERIVATIVE” (JAPAN TOBACCO INC., priority 1991, dated 1993)

What was measured:
[1] = target: T1, human leukocyte elastase (HLE) (Homo sapiens, UniProt P08246); assay: HLE inhibitory activity (synthetic substrate, pNA release, absorbance 405 nm); type: biochemical; settings: pH 8.6; HLE 5.63 nM, substrate 0.2625 mM; 37°C; read-out: IC₅₀ value HLE
T1 construct: the mixed solution was subjected to density gradient centrifugation, thereby obtaining neutrophiles; from tissue; host or cells: neutrophils from human vein blood (buffy coat)
T1 sequence (P08246 30-247 limits assumed): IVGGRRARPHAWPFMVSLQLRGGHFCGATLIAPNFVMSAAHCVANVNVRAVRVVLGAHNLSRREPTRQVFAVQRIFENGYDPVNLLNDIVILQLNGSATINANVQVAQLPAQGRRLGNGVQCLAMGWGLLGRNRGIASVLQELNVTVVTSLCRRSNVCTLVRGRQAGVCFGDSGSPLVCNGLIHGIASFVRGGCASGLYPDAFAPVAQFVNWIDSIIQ
Experimental: (§1) Activities of the Benzoxazine derivatives of the present invention against human leukocyte elastase (HLE), human sputum elastase (HSE), human cathepsin G (HCG), bovine pancreatic α-chmotrypsin (CYT) and bovine pancreatic trypsin (TRY) were measured by the following method.
A buffy coat was obtained by subjecting human vein blood to centrifugation. To the buffy coat was added distilled water to make a hypotonic solution, thereby bursting erythrocytes. To the residual blood cell component was added a 33.4% of Conrey 400 solution/9% Ficoll solution (the ratio of the former solution to the latter solution is 10:24), and the mixed solution was subjected to density gradient centrifugation, thereby obtaining neutrophiles. The neutrophile fraction was washed with Hanks' buffer for three times and then cells were recovered and cryopreserved at -80°C until use. The cryopreserved-cells were thawed with warm water at 37°C and suspended in a 9-fold volume of lysis buffer containing 0.1M Tris-HCl (pH7.5), 1M MgCl₂ and 0.1% Brij 35. The suspended cells are destroyed by means of polotoron with ice-cooling. The cell suspension was subjected to centrifugation at 100,000 x g for 1 hour. After removing precipitates, 2-fold volume of a Tris-HCl buffer containing 5 mM Tris-HCl(pH 7.5), 1M NaCl and 1.1% Brij 35 was added to the supernatant, thereby obtaining a crude solution of an enzyme extract. The crude solution was subjected to aprotinine affinity column and extracted with an elution buffer containing […] of glycine-HCl (pH 3.3), 1M NaCl and 0.1% Brij 35, thereby obtaining an active fraction. The obtained active fraction was further subjected to MONO S-ion-exchange chromatography and eluted with 2M NaCl linear gradient. The obtained fraction was dialyzed against 25 mM Tris-HCl (pH8.6) and lyophilized, thereby obtained an enzyme sample.
(§2) A test compound was dissolved in DMSO (for fluorometry) and prepared various concentration of the solution. To each concentration was added 2-fold volume of 0.2M Tris-HCl (pH8.6), thereby obtaining a test solution. Synthetic substrate (Funakoshi, L-1335) was dissolved in DMSO and 2-volume of 0.2M Tris-HCl (pH8.6) was added thereto, thereby obtaining a substrate solution. The reaction was performed using a microplate having 96 wells (Nunk). Six-time reactions were repeated for each concentration. One handred and forty µl of an enzyme solution containing 0.2M Tris-HCl (pH8.6), 30 µl of a test solution and 30 µl of a substrate solution per well of the microplate were respectively pre-incubated at 37°C for 10 minutes. After completion of the incubation, the enzyme solution was mixed with the test sample and incubated for 10 minutes and then the substrate solution was added to perform an enzyme reaction. The absorbance of released P-nitroanilide (PNA) was measured at the wave length of 405 nm by means of a microplate reader (MTP-100; CORONA), thereby determining the substrate decomposition. The rate of the substrate decomposition was shown as an average value of 6 repeated reactions. The inhibitory concentration of a test compound relative to the amount of the substrate decomposition in the reaction mixture without a test compound was regarded as an IC₅₀ value. The final concentration of HLE and a synthesized substrate in the reaction mixture were 5.63 nM and 0.2625 mM, respectively.

human cathepsin G (HCG) = target: T2, human cathepsin G (HCG) (Homo sapiens, UniProt P08311); assay: HCG inhibitory activity (synthetic substrate, pNA release); type: biochemical; settings: pH 7.5; HCG 50 nM, substrate 0.5 mM; read-out: IC₅₀ value HCG
T2 construct: purchased Cosmo Bio Inc
T2 sequence (P08311 21-244): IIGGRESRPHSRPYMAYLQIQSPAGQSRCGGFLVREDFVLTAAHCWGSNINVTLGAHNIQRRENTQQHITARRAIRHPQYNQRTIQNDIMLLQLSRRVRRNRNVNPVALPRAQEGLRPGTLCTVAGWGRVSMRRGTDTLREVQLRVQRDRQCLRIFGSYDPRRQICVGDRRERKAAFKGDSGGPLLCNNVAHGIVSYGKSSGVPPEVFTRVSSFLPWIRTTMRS
Experimental: as §1, §2
a) Enzyme obtaining route HCG was obtained from Cosmo Bio Inc.
The same method as in the measurement of HLE inhibitory activity was used except that a buffer solution (pH 7.5) was used. The final concentration of HCG and synthetic substrate (Funakoshi, L-1010) in a reaction mixture were 50 nM and 0.5 mM, respectively.

[2] = tested on: Neutrophile Infiltration of Carrageenin-induced Air Pouch inflammation; assay: Suppression of neutrophile infiltration in carrageenin-induced air pouch inflammation; type: in vivo, rat; settings: Dose 10.9 µmol into the air pouch immediately after carrageenin, exudate cells five hours later, SD female rats
Experimental: SD female rats in 5 weeks old, having the weight in the range of 110 to 130g were used. A group was regarded to have 5 rats. In the first step, an air pouch was formed by a hypodermic injection of 8 ml of air on the back of a rat under ether anesthesia. Twenty four hours later, to the air pouch was added 5 ml of a saline containing 1% carrageenin (Wako Co., Ltd.). A test compound of the present invention, which has been dissolved in 200 µl DMSO (dimethylsulfoxide), was administered in the air pouch immediately after the carrageenin injection.
Five hours later, the rat was killed and the blood was released. Then, 5 ml of PBS containing EDTA (ethylenediamine tetraacetate) was injected in the air pouch. The exudate in the air pouch was washed and collected. An aliquot of the exudate was measured by a colter counter and determined the number of cells in the collected exudate.
The value subtracting migrating cell number in an experiment performed without carrageenin injection from the migrating cell number in a control experiment administering no the compound of the present invention was regarded as 100, the chemotaxis suppressing activity was determined as the following formula: Cell Infiltration Suppressing Activity (%) [formula] = 100 - S/T x 100 [formula] = 100 - (U - V )/(W - V) x 100 [formula] […]

[3] = target: T3, bovine pancreatic α-chmotrypsin (CYT) (Bos taurus, UniProt P00766); assay: CYT inhibitory activity (synthetic substrate, pNA release); type: biochemical; settings: pH 8.0; CYT 3.4 nM, substrate 0.273 mM; read-out: IC₅₀ value CYT
T3 construct: bovine pancreatic α-chmotrypsin (CYT); purchased Sigma Co., Ltd
Experimental: as §1, §2
a) Enzyme obtaining route CYT was obtained from Sigma Co., Ltd.
Substantially the same method as used in the measurement of the HLE inhibitory activity was used except that a buffer solution (pH 8.0) was used. The final concentration of CYT and synthetic substrate (Funakoshi, L-1010) in a reaction mixture were 3.4 nM and 0.273 mM, respectively.

[4] = tested on: neutrophiles from the human peripheral blood; assay: Human neutrophile chemotaxis suppressing activity (fMLP, chemotaxis chamber); type: cell-based; settings: 10-⁷M fMLP, one hour at 37°C; for Chemotaxis: experiment without compound regarded as 100
Experimental: The neutrophile fraction (60% percoal fraction having neutrophile purity of 90% or more) was taken from the human peripheral blood by means of percoal density gradient centrifugation at 2300 rpm for 20 minutes.
An intercell having a pore diameter of 5 µm, containing 8 x 10⁵ of neutrophiles and the compound of the present invention adjusted in various concentrations was placed in each well of a chemotaxis chamber (KURABO), in which has been added 1300 µl of a medium containing 10-⁷M of formylmethionyl-leucyl-phenylalanine (fMLP), which is a neutrophile chemotaxis factor. After incubating for one hour at 37°C in an incubator containing 5% carbon dioxide, the number of cells migrating from the upper side of the intercell membrane into the lower side of the membrane in the chamber was counted by the following method. That is, the lower side surface of the intercell membrane was washed with PBS for 4 times and fixed with methanol and dyed with hematoxylin-eosin solution. The membrane was removed from the intercell and placed on a slide, dried in air, followed by sealing with Canada balsam. The cell number was microscopically counted in 5 visual fields. Taking average number of the five fields, the average was employed as the number of migrating cells. The value subtracting the migrating cell number in a control experiment containing no fMLP from the cell number in an experiment containing no the compound of the present invention was regarded as 100, the chemotaxis suppressing activity was determined as the following formula: Neutrophilic chemotaxis suppressing activity (%) [formula] = 100 - A/B x 100 [formula] = 100 - (C - D)/(E-D) x 100 [formula] Where: • A: chemotaxis measured in the experiment containing the compound of the present invention; • B: chemotaxis measured in the experiment not containing the compound of the present invention • C: the number of migrating cells measured in the experiment containing both the compound of the present invention and fMLP. • D: the number of migrating cells in the experiment containing neither the compound of the present invention nor fMLP. • E: the number of migrating cells in the experiment containing only fMLP.

[5] = target: T4, human sputum elastase (HSE) (Homo sapiens, UniProt P08246); assay: HSE inhibitory activity (synthetic substrate, pNA release); type: biochemical; settings: pH 7.0; HSE 10 nM, substrate 0.25 mM; read-out: IC₅₀ value HSE
T4 construct: human sputum elastase (HSE); purchased Sigma Inc
T4 sequence (P08246 30-267): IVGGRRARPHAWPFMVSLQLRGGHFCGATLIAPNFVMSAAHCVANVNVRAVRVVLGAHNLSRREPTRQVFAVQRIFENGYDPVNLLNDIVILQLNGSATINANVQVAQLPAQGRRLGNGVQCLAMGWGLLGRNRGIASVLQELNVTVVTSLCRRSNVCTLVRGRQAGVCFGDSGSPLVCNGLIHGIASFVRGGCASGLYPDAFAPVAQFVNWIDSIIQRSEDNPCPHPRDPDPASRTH
Experimental: as §1
as §2, with “The rate of the substrate decomposition was shown as an average value of 6 repeated reactions. The inhibitory concentration of a test compound relative to the amount of the substrate decomposition in the reaction mixture without a test compound was regarded as an IC₅₀ value. The final concentration of HLE and a synthesized substrate in the reaction mixture were 5.63 nM and 0.2625 mM, respectively.” left out

[6] = target: T5, bovine pancreatic trypsin (TRY) (Bos taurus, UniProt P00760); assay: TRY inhibitory activity (synthetic substrate, pNA release); type: biochemical; settings: pH 7.5; TRY 25 nM, substrate Z-Arg-pNA 1.0 mM; read-out: IC₅₀ value TRY
T5 construct: bovine pancreatic trypsin (TRY); purchased Sigma Inc
T5 sequence (P00760 24-246): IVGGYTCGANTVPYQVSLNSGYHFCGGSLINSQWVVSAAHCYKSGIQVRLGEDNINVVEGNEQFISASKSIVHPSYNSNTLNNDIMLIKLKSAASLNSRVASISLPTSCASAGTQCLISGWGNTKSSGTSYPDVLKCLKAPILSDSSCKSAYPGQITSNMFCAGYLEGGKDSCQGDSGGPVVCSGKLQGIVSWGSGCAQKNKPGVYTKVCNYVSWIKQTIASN
Experimental: as §1
as §2, with “The rate of the substrate decomposition was shown as an average value of 6 repeated reactions. The inhibitory concentration of a test compound relative to the amount of the substrate decomposition in the reaction mixture without a test compound was regarded as an IC₅₀ value. The final concentration of HLE and a synthesized substrate in the reaction mixture were 5.63 nM and 0.2625 mM, respectively.” left out

Row | IC50 [1] | IC50 (human cathepsin G (HCG)) | IC50 [3] | IC50 [5] | IC50 [6] | SMILES | Rate (%) of Suppressing Cell Infietration [2] | Cell Infiltration ([2]; control regarded as 100) | Chemotaxis ([4]; Concentration 0.125 µM) | Chemotaxis ([4]; Concentration 1.000 µM) | activity at 0.125 µM ([4]; Homo sapiens, 1 h, Concentration 0.125 µM) | activity at 1 µM ([4]; Homo sapiens, 1 h, Concentration 1.000 µM)
1 | 340 nM | 58300 nM | 2080 nM | – | – | Cc1cccc2nc([C@@H](NC(=O)COC(c3ccccc3)c3ccccn3)C(C)C)oc(=O)c12 (mixture of isomers) [Compound 3, 5-methyl-2-[2-methyl-1(S)-[[[(±)-α-(2-pyridyl)benzyloxy]acetyl]amino]propyl]-4H-3,1-benzoxazin-4-one] | 33.9% | 66.1 | – | – | – | –
2 | 220 nM | > 27400 nM | 830 nM | – | – | Cc1cccc2nc([C@@H](NC(=O)COC(c3ccccc3)c3ccccc3)C(C)C)oc(=O)c12 [Compound 2, 2-[1(S)-[[(diphenylmethoxy)acetyl]amino]-2-methylpropyl]-5-methyl-4H-3,1-benzoxazin-4-one] | – | – | 70.6 | 57.4 | 29.4% | 42.6%
3 | 210 nM | > 25000 nM | 1550 nM | 260 nM | > 12600 nM | Cc1cccc2nc([C@@H](NC(=O)OCC34CC5CC(CC(C5)C3)C4)C(C)C)oc(=O)c12 [Compound 6, 2-[1(S)-[[(1-adamantyl)methoxy-carbonyl]amino]-2-methylpropyl]-5-methyl-4H-3,1-benzoxazin-4-one] | – | – | – | – | – | –
